Like-named read-outs stand apart in the source and are kept apart here.
Columns and labels:
Type in all cases: cell-based
[1] = system: microfilariae of Dirofilaria immitis; assay: Dirofilaria immitis, Microfilaria (DiMf) In Vitro Assay; conditions: Dirofilaria immitis, 72 h, read-out: DiMf MED, Minimum Effective Dose, D. immitis microfilariae motility, in vitro
[2] = system: D. immitis L4 larvae; assay: Dirofilaria immitis, L4 Stage (DiL4) In Vitro Assay; conditions: for minimal effective concentration: Dirofilaria immitis, 72 h, read-out: DiL4 MED, Minimum Effective Dose, D. immitis L4 larvae motility, in vitro; for DiMf/DiL4: larval stage selectivity, ratio of DiMf MED to DiL4 MED
[3] = system: third stage larvae of Haemonchus contortus; assay: Haemonchus contortus, Larvae Stage 3 (HcL3) In Vitro Assay; conditions: Haemonchus contortus, 96 h
[4] = read-out: HcL3 MED (symbol after Ex#), approximately 96 hours incubation, multiple-resistant field isolate
[5] = read-out: HcL3 MED, Minimum Effective Dose, H. contortus third stage larvae, approximately 96 hours
[6] = read-out: HcL3 MED, approximately 96 hours incubation, multiple-resistant field isolate
[7] = read-out: HcL3 MED, Haemonchus contortus third stage larvae in vitro, class mark appended to the Ex # in Table 3

Row | SMILES | minimal effective concentration [1] | minimal effective concentration [2] | DiMf/DiL4 [2] | minimal effective concentration [3, 4] | minimal effective concentration [3, 5] | minimal effective concentration [3, 6] | minimal effective concentration [3, 7]
1 | COc1ccsc1Cc1ccc(C[C@H]2OC(=O)[C@H](CC(C)C)N(C)C(=O)[C@@H](C)OC(=O)[C@H](CC(C)C)N(C)C(=O)[C@@H](Cc3ccccc3)OC(=O)[C@H](CC(C)C)N(C)C(=O)[C@@H](C)OC(=O)[C@H](CC(C)C)N(C)C2=O)cc1 [Example 4-105, (3S,6R,9S,12R,15S,18R,21S,24R)-6-benzyl-3,9,15,21-tetraisobutyl-18-(4-((3-methoxythiophen-2-yl)methyl)benzyl)-4,10,12,16,22,24-hexamethyl-1,7,13,19-tetraoxa-4,10,16,22-tetraazacyclotetracosan-2,5,8,11,14,17,20,23-octaone] | 0.005 µM | 0.0002 µM | 25 | < 1 µM | 0.3 µM | ≤ 1 µM | 
2 | CC(C)C[C@H]1C(=O)O[C@H](Cc2ccc(Cc3ccnn3C)cc2)C(=O)N(C)[C@@H](CC(C)C)C(=O)O[C@H](C)C(=O)N(C)[C@@H](CC(C)C)C(=O)O[C@H](Cc2ccccc2)C(=O)N(C)[C@@H](CC(C)C)C(=O)O[C@H](C)C(=O)N1C [Example 4-63, (3S,6R,9S,12R,15S,18R,21S,24R)-6-benzyl-3,9,15,21-tetraisobutyl-4,10,12,16,22,24-hexamethyl-18-(4-((1-methyl-1H-pyrazol-5-yl)methyl)benzyl)-1,7,13,19-tetraoxa-4,10,16,22-tetraazacyclotetracosan-2,5,8,11,14,17,20,23-octaone] | 0.001 µM | 0.001 µM | 1 | < 1 µM | 1 µM | ≤ 1 µM | 
3 | CC(C)C[C@H]1C(=O)O[C@H](Cc2ccc(Cc3ccnc(F)c3F)cc2)C(=O)N(C)[C@@H](CC(C)C)C(=O)O[C@H](C)C(=O)N(C)[C@@H](CC(C)C)C(=O)O[C@H](Cc2ccc(Cc3ccnc(F)c3F)cc2)C(=O)N(C)[C@@H](CC(C)C)C(=O)O[C@H](C)C(=O)N1C [Example 3-326, (3S,6R,9S,12R,15S,18R,21S,24R)-6,18-bis(4-((2,3-difluoropyridin-4-yl)methyl)benzyl)-3,9,15,21-tetraisobutyl-4,10,12,16,22,24-hexamethyl-1,7,13,19-tetraoxa-4,10,16,22-tetraazacyclotetracosan-2,5,8,11,14,17,20,23-octaone] | 0.03 µM | 0.0003 µM | 100 |  | 10 µM |  | 
4 | Cc1ccsc1Cc1ccc(C[C@H]2OC(=O)[C@H](CC(C)C)N(C)C(=O)[C@@H](C)OC(=O)[C@H](CC(C)C)N(C)C(=O)[C@@H](Cc3ccccc3)OC(=O)[C@H](CC(C)C)N(C)C(=O)[C@@H](C)OC(=O)[C@H](CC(C)C)N(C)C2=O)cc1 [Example 4-34, (3S,6R,9S,12R,15S,18R,21S,24R)-6-benzyl-3,9,15,21-tetraisobutyl-4,10,12,16,22,24-hexamethyl-18-(4-((3-methylthiophen-2-yl)methyl)benzyl)-1,7,13,19-tetraoxa-4,10,16,22-tetraazacyclotetracosan-2,5,8,11,14,17,20,23-octaone] | 0.01 µM | 0.0003 µM | 33.3 | < 1 µM | 0.5 µM | ≤ 1 µM | 
5 | CC(C)C[C@H]1C(=O)O[C@H](Cc2ccc(Cc3cncs3)cc2)C(=O)N(C)[C@@H](CC(C)C)C(=O)O[C@H](C)C(=O)N(C)[C@@H](CC(C)C)C(=O)O[C@H](Cc2ccc(Cc3cncs3)cc2)C(=O)N(C)[C@@H](CC(C)C)C(=O)O[C@H](C)C(=O)N1C [Example 3-12, (3S,6R,9S,12R,15S,18R,21S,24R)-3,9,15,21-tetraisobutyl-4,6,10,16,18,22-hexamethyl-12,24-bis(4-(thiazol-5-ylmethyl)benzyl)-1,7,13,19-tetraoxa-4,10,16,22-tetraazacyclotetracosan-2,5,8,11,14,17,20,23-octaone] | 0.0007 µM | 0.001 µM | 0.7 |  | 3.3 µM |  | 1 to 3.3 µM
6 | Cc1ncsc1Cc1ccc(C[C@H]2OC(=O)[C@H](CC(C)C)N(C)C(=O)[C@@H](C)OC(=O)[C@H](CC(C)C)N(C)C(=O)[C@@H](Cc3ccc(Cc4scnc4C)cc3)OC(=O)[C@H](CC(C)C)N(C)C(=O)[C@@H](C)OC(=O)[C@H](CC(C)C)N(C)C2=O)cc1 [Example 3-155, (3S,6R,9S,12R,15S,18R,21S,24R)-3,9,15,21-tetraisobutyl-4,6,10,16,18,22-hexamethyl-12,24-bis(4-((4-methylthiazol-5-yl)methyl)benzyl)-1,7,13,19-tetraoxa-4,10,16,22-tetraazacyclotetracosan-2,5,8,11,14,17,20,23-octaone] | 0.0001 µM | 2e-05 µM | 5 |  | 0.5 µM | ≤ 1 µM | < 1 µM
7 | CC(C)C[C@H]1C(=O)O[C@H](Cc2ccc(Cc3cccnc3C3CC3)cc2)C(=O)N(C)[C@@H](CC(C)C)C(=O)O[C@H](C)C(=O)N(C)[C@@H](CC(C)C)C(=O)O[C@H](Cc2ccc(Cc3cccnc3C3CC3)cc2)C(=O)N(C)[C@@H](CC(C)C)C(=O)O[C@H](C)C(=O)N1C [Example 3-296, (3S,6R,9S,12R,15S,18R,21S,24R)-6,18-bis(4-((2-cyclopropylpyridin-3-yl)methyl)benzyl)-3,9,15,21-tetraisobutyl-4,10,12,16,22,24-hexamethyl-1,7,13,19-tetraoxa-4,10,16,22-tetraazacyclotetracosan-2,5,8,11,14,17,20,23-octaone] | 0.03 µM | 0.0005 µM | 60 |  | 1.8 µM |  | 1 to 3.3 µM
8 | CC(C)C[C@H]1C(=O)O[C@H](Cc2ccc(Cc3cccnc3C(F)(F)F)cc2)C(=O)N(C)[C@@H](CC(C)C)C(=O)O[C@H](C)C(=O)N(C)[C@@H](CC(C)C)C(=O)O[C@H](Cc2ccc(Cc3cccnc3C(F)(F)F)cc2)C(=O)N(C)[C@@H](CC(C)C)C(=O)O[C@H](C)C(=O)N1C [Example 3-238, (3S,6R,9S,12R,15S,18R,21S,24R)-3,9,15,21-tetraisobutyl-4,6,10,16,18,22-hexamethyl-12,24-bis(4-((2-(trifluoromethyl)pyridin-3-yl)methyl)benzyl)-1,7,13,19-tetraoxa-4,10,16,22-tetraazacyclotetracosan-2,5,8,11,14,17,20,23-octaone] | 0.002 µM | 0.0001 µM | 20 |  | > 5 µM |  | 
9 | CC(C)C[C@H]1C(=O)O[C@H](Cc2ccc(Cc3coc(C#N)c3)cc2)C(=O)N(C)[C@@H](CC(C)C)C(=O)O[C@H](C)C(=O)N(C)[C@@H](CC(C)C)C(=O)O[C@H](Cc2ccc(Cc3coc(C#N)c3)cc2)C(=O)N(C)[C@@H](CC(C)C)C(=O)O[C@H](C)C(=O)N1C [Example 3-60, 4,4′-(((((2R,5S,8R,11 S,14R,17S,20R,23S)-5,11,17,23-tetraisobutyl-4,8,10,16,20,22-hexamethyl-3,6,9,12,15,18,21,24-octaoxo-1,7,13,19-tetraoxa-4,10,16,22-tetraazacyclotetracosane-2,14-diyl)bis(methylene))bis(4,1-phenylene))bis(methylene))bis(furan-2-carbonitrile)] | 0.05 µM | 0.001 µM | 50 |  | > 10 µM |  | 
